In US11236055B2 (Venenum Biodesign, LLC, priority 2016, dated 2022):
Where a name gives a salt, the structure may show the parent alone.

Assays:
[1] = target: T1, human TGR5 receptor (Homo sapiens, UniProt Q8TDU6); assay: Human TGR5 cAMP production assay; format: cell-based; conditions: human TGR5, luminescent cAMP assay; coded A-D; read-out: Human TGR5 Lum. cAMP Activity (EC50)
T1 construct: host or cells: CHO-K1 (hTGR5-CHO cells)
T1 sequence (Q8TDU6 1-330): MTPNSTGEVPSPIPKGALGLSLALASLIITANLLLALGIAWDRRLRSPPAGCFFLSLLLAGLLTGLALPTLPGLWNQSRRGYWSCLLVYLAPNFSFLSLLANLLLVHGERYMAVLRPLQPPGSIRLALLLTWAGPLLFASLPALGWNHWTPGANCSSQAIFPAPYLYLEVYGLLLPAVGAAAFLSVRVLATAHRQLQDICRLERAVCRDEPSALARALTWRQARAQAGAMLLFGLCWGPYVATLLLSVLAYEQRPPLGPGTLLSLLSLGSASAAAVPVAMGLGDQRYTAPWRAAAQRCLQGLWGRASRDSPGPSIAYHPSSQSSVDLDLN
Experimental: Human TGR5 cAMP Production Assay
We evaluated the Compounds of the present invention for their ability to induce cAMP production using CHO-K1 cells overexpressing the human TGR5 receptor. CHO-K1 cells stably expressing human TGR5 receptor (accession number NM_001077194.1 (hTGR5) (i.e., hTGR5-CHO cells) were purchased from DiscoveRx Corporation (Fremont, Calif.). hTGR5-CHO cells were grown in Ham's F-12 media supplemented with 10% Fetal Bovine Serum, 1% Penicillin-Streptomycin, 2 mM L-Alanine L-Glutamine (Glutamax), and 800 μg/mL Geneticin selection. The cAMP production assay was performed using DiscoveRx's cAMP XS+ kit (Catalog No. 90-0075XL) following the manufacturer's recommended protocol. Briefly, hTGR5-CHO cells were harvested using non-enzymatic cell dissociation buffer (Sigma-Aldrich, St. Louis, Mo.) and 1×10^6 cells were combined in Phosphate-Buffered Saline (PBS) to a final volume of 496 μL to which 4 μL of 125 mM IBMX (Sigma-Aldrich, St. Louis, Mo.) was added. 500 μL of cAMP antibody solution was added to the harvested cells and incubated at room temperature for 20 min.
Test compounds were serially diluted (half-log dilutions) in DMSO and then further diluted 1:50 in PBS, 10 mM HEPES buffer. 2 μL of serially diluted compound was added to a 384-well low volume plate (Greiner; cat #784075) and centrifuged briefly. 2 μL of the cell/cAMP antibody mixture was then added to each compound-containing well and allowed to incubate at room temperature for one hour. Following incubation, the XS+ kits' ED/Lysis/CL Substrate Working Solution was prepared following the manufacturer's recommended protocol and 4 μL was added to each well of the plate. The plate was then incubated for one hour at room temperature. Following incubation, 4 μL of Enzyme Acceptor reagent was added to the plate and allowed to incubate overnight at room temperature. Luminescent signal was then detected using the Viewlux instrument (Perkin-Elmer, Waltham, Mass.).
(§1) In Table 33, EC50 values for both human and mouse cells were determined according to the TGR5 cAMP assays described above.

[2] = target: T2, mouse TGR5 receptor (Mus musculus, UniProt Q80SS6); assay: Mouse TGR5 cAMP production assay (HTRF, Cisbio cAMP HiRange); format: cell-based; conditions: HEK293-EBNA cells overexpressing mouse TGR5, HTRF cAMP HiRange; coded A-D
T2 construct: expressed in transfected cells; host or cells: HEK293-EBNA (293 c18, ATCC CRL10852), Hygromycin B selection
T2 sequence (Q80SS6 1-329): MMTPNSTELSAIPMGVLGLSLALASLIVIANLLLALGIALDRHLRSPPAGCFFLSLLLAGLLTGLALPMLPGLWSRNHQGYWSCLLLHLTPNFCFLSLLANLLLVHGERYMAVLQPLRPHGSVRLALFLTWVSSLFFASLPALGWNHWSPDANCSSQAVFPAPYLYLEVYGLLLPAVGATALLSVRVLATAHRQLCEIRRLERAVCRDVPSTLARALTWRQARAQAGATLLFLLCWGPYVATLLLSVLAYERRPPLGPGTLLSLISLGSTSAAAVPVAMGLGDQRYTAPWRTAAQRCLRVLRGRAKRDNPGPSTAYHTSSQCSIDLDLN
Source text: Mouse TGR5 cAMP Production Assay
We evaluated compounds of the present invention for their ability to induce cAMP production in HEK-EBNA cells overexpressing the mouse TGR5 receptor. Human embryonic kidney cells (HEK293-EBNA) stably expressing mouse TGR5 receptor were established using the following procedure. Specifically, a commercially-obtained gene encoding mouse TGR5 (accession number BC116914) from Thermo Scientific (Waltham, Mass.) was cloned into an episomal expression vector. The resulting expression plasmid was then transfected into 293 c18 (ATCC® CRL10852™) cells, which express the Epstein-Barr virus nuclear antigen EBNA1 and can support the replication of episomal vectors. Selection for the plasmid was maintained with Hygromycin B. Cells were cultured and maintained in DMEM (Sigma; cat #6429) supplemented with 10% Fetal Bovine Serum, 1% penicillin/streptomycin, 2 mM L-alanine L-glutamine (GlutaMax), and 250 μg/mL Hygromycin.
2. HTRF cAMP Production Assay
In this second cAMP production assay, the cAMP production was measured in 384-well low volume plates (Greiner; cat #784075) using the Cisbio™ cAMP HiRange HTRF Assay Kit (Cisbio) according to the manufacturer's protocol.
Briefly, compounds were initially diluted in 100% DMSO (12-point serial dilution by half logs) in a 96-well plate and then were further diluted 1:50 in PBS containing 10 mM HEPES. 5 μL were transferred to the 384-well assay plate in duplicate. HEK293-EBNA cells stably overexpressing mouse TGR5 were harvested using non-enzymatic cell dissociation buffer (Sigma), spun down, then resuspended in serum-free DMEM with 500 μM IBMX at a density of 500,000 cells/mL. 5 μL of cell suspension was transferred to each well of the 384-well assay plate already containing compound. The plate was covered and incubated at room temperature for 1 hour. The d2-cAMP and anti-cAMP Ab-cryptate stock solutions were prepared as per kit instructions. Then 5 μL of each conjugate (d2 and cryptate) were added to each well of the assay plate. The plate was covered and incubated at room temperature for 1 hour. The plate was read on an Envision™ plate reader (Perkin Elmer).
as §1

| Compound | EC50 [1] [nM] | EC50 [2] [nM] |
| --- | --- | --- |
| Cc1cnccc1-c1cccc([C@H](C)N(CCCC(=O)NCCS(=O)(=O)O)S(=O)(=O)c2ccccc2C(F)(F)F)c1 | < 100 | 100 to 999 |
| Cc1cnccc1-c1cccc([C@H](C)N(CCCCNc2c(NCCS(=O)(=O)O)c(=O)c2=O)S(=O)(=O)c2ccccc2C(F)(F)F)c1 | < 100 | 100 to 999 |
| CCc1cnccc1-c1cccc(C2CN(C(=O)[C@@H](N)CS(=O)(=O)O)CCN2S(=O)(=O)c2cccc(Cl)c2C)c1 (mixture of isomers) [Compound 48, (2R)-2-amino-3-(4-((3-chloro-2-methylphenyl)sulfonyl)-3-(3-(3-ethylpyridin-4-yl)phenyl)piperazin-1-yl)-3-oxopropane-1-sulfonic acid hydrochloride] | 100 to 999 | < 100 |
| COc1cnccc1-c1cccc(C(CO)NS(=O)(=O)c2cccc(C(F)(F)F)c2)c1 (racemic) [Compound 17, (+/−) N-(2-hydroxy-1-(3-(3-methoxypyridin-4-yl)phenyl)ethyl)-3-(trifluoromethyl)benzenesulfonamide] | 100 to 999 | 1000 to 30000 |
| Cc1cnccc1-c1cccc(C2CCCN2S(=O)(=O)c2ccccc2C(F)(F)F)c1 (racemic) [Compound 41, (+/−) 3-Methyl-4-(3-(1-((2-(trifluoromethyl)phenyl)sulfonyl)pyrrolidin-2-yl)phenyl)pyridine] | < 100 | 100 to 999 |
| Cc1cnccc1-c1cccc(C2CN(C(=O)OC(C)(C)C)CCN2S(=O)(=O)c2ccccc2C(F)(F)F)c1 (racemic) [Compound 42, (+/−) tert-butyl 3-(3-(3-methylpyridin-4-yl)phenyl)-4-((2-(trifluoromethyl)phenyl)sulfonyl)-piperazine-1-carboxylate] | 1000 to 30000 | 1000 to 30000 |
| CCc1cnccc1-c1cccc(C2CNCCN2S(=O)(=O)c2cccc(Cl)c2C)c1 (racemic) [Compound 43, (+/−) 1-((3-chloro-2-methylphenyl)sulfonyl)-2-(3-(3-ethylpyridin-4-yl)phenyl)piperazine hydrochloride] | < 100 | < 100 |
| Cc1cnccc1-c1cccc(C2CNCCN2S(=O)(=O)c2ccccc2C(F)(F)F)c1 (racemic) [Compound 44, (+/−) 2-(3-(3-methylpyridin-4-yl)phenyl)-1-((2-(trifluoromethyl)phenyl)sulfonyl)piperazine] | 100 to 999 | 100 to 999 |
| Cc1cnccc1-c1cccc([C@H]2C[C@@H](C(=O)O)CCN2S(=O)(=O)c2ccccc2C(F)(F)F)c1 (relative stereo) [Compound 55, cis-2-(3-(3-Methylpyridin-4-yl)phenyl)-1-((2-(trifluoromethyl)phenyl)sulfonyl)piperidine-4-carboxylic acid] | 100 to 999 | 100 to 999 |
| CC(C)(NS(=O)(=O)c1cccc(C(F)(F)F)c1)c1cccc(-c2ccncc2N)c1 [Compound 1AM] | < 100 | 100 to 999 |
| CC(C)(NS(=O)(=O)c1ccccc1C(F)(F)F)c1cccc(-c2ccnnc2)c1 [Compound 1BL] | 100 to 999 | 1000 to 30000 |
| Cc1c(Cl)cccc1S(=O)(=O)N[C@@H](C)c1cccc(-c2ccnnc2)c1 [Compound 1BP] | 100 to 999 | 1000 to 30000 |
| COc1cnccc1-c1cc(CNS(=O)(=O)c2cccc(C(F)(F)F)c2)ccn1 [Compound 1BS] | 1000 to 30000 | 1000 to 30000 |
| COc1cnccc1-c1ccnc(CNS(=O)(=O)c2ccccc2C(F)(F)F)c1 [Compound 1BT] | 1000 to 30000 | 1000 to 30000 |
| COc1cnccc1-c1cccc(C(NS(=O)(=O)c2ccccc2C(F)(F)F)c2ccccc2)c1 (stereo not drawn) [Compound 1CC] | 100 to 999 | 100 to 999 |
| CC[C@H](NS(=O)(=O)c1ccccc1C(F)(F)F)c1cccc(-c2ccncc2OC)c1 [Compound 1CD] | < 100 | 100 to 999 |
| COC(=O)C(NS(=O)(=O)c1cccc(C(F)(F)F)c1)c1cccc(-c2ccncc2OC)c1 (stereo not drawn) [Compound 1CE] | 1000 to 30000 | 1000 to 30000 |
| COc1cnccc1-c1cccc(CCNS(=O)(=O)c2ccccc2C(F)(F)F)c1 [Compound 1CF] | 100 to 999 | 1000 to 30000 |
| COc1cnccc1-c1cccc(C(C)(C)NS(=O)(=O)c2ccc(F)cc2C(F)(F)F)c1 [Compound 2BD] | < 100 | 100 to 999 |
| COc1cnccc1-c1cccc(C(C)(C)NS(=O)(=O)c2cc(Cl)ccc2Cl)c1 [Compound 2BE] | < 100 | 100 to 999 |
| COc1cnccc1-c1cccc(C(C)(C)NS(=O)(=O)c2ccc(Cl)cc2C(F)(F)F)c1 [Compound 2BF] | < 100 | 100 to 999 |
| COc1cnccc1-c1cccc(C(C)(C)NS(=O)(=O)c2ccc(Cl)cc2Cl)c1 [Compound 2BG] | < 100 | < 100 |
| COc1cnccc1-c1cccc(C(C)(C)NS(=O)(=O)c2cc(Cl)ccc2[N+](=O)[O-])c1 [Compound 2BH] | < 100 | < 100 |
| COc1cnccc1-c1cccc(C(C)(C)NS(=O)(=O)c2ccc(Cl)cc2[N+](=O)[O-])c1 [Compound 2BI] | < 100 | 100 to 999 |
| COc1cnccc1-c1cccc(C(C)(C)NS(=O)(=O)c2ccc(C(F)(F)F)cc2[N+](=O)[O-])c1 [Compound 2BJ] | < 100 | 1000 to 30000 |
| COc1cnccc1-c1cccc(C(C)(C)NS(=O)(=O)c2cc(C(F)(F)F)ccc2C(F)(F)F)c1 [Compound 2BK] | 100 to 999 | 1000 to 30000 |
| COc1cnccc1-c1cccc(C(C)(C)NS(=O)(=O)c2cccc(C(F)(F)F)c2C)c1 [Compound 2BM] | < 100 | 100 to 999 |
| COc1cnccc1-c1cccc(C(C)(C)NS(=O)(=O)c2ccc(C#N)cc2Cl)c1 [Compound 2BN] | 100 to 999 | 1000 to 30000 |
| Cc1cnccc1-c1cccc(C(C)(C)NS(=O)(=O)c2cccc(Cl)c2C)c1 [Compound 2BU] | < 100 | < 100 |
| Cc1cnccc1-c1cccc(C(C)(C)NS(=O)(=O)c2cccc(Cl)c2Cl)c1 [Compound 2BV] | < 100 | < 100 |
